Assay results from PMC11861906, “Structural basis for lipid-mediated activation of G protein-coupled receptor GPR55” (Nature Communications, 2025).

Columns and labels:
Type in all cases: cell-based
[1] = biological target: GPR55 mutant G152W (Gα13) (Homo sapiens, UniProt Q9Y2T6, G152W); test: BRET² G protein dissociation assay, GPR55 G152W with Gα13
From the text: (§1) To validate the functionality of the GPR55 cryo-EM construct, we conducted bioluminescence resonance energy transfer 2 (BRET²)-based G protein dissociation assays[46],[47] using an engineered heterotrimeric G13 protein. The N-terminal GFP fusion of the receptor was additionally modified with a G67A mutation to disrupt fluorescence properties. We employed human embryonic kidney (HEK) cells overexpressing wt or mutant GPR55 together with Gβ3, Gγ9-GFP, and Gα13 tagged with Renilla luciferase 8 (Rluc8).
(§2) G protein dissociation assays were performed according to the original protocols of the TRUPATH BRET² assay[47],[87] but with subtle modifications as previously described[61],[88],[89]. All reagents and cells were obtained from Thermo Fisher Scientific unless indicated otherwise. The coding sequences for the G protein biosensors[47] (Gα12-Rluc8, Gα13-Rluc8, wt Gβ3, and Gγ9-GFP), the wt GPR55, the construct used for cryo-EM (with GFP bearing a G67A mutation to disrupt fluorescence properties[48] for BRET² assays), GPR55 binding pocket mutants (G152^4.56F, G152^4.56W, N171^ECL2Q, N171^ECL2A, T176^5.33A, R253^6.62A), and the wt TBXA2R were codon-optimized for Homo sapiens, gene-synthesized, and sub-cloned into pcDNA^TM3.1(+) between NheI and HindIII restriction sites by GeneArt (Thermo Fisher Scientific). […] Freshly grown cells were washed with Dulbecco’s Balanced Salt Solution (DPBS, cat. #14200075) and detached using trypsin-ethylenediaminetetraacetic acid (trypsin-EDTA) (cat. #25300-062). Then, the cells were reconstituted to 500,000 cells per mL with fresh medium, and 1,000,000 cells were seeded into each well of a 6-well plate. After 3 h incubation at 37 °C and 5% CO2, adherent cells were transfected with 600 ng DNA (1:1:1:1 ratio of plasmid DNA for GPR55, wt Gβ3, Gγ9-GFP, and Gα12-Rluc8 or Gα13-Rluc8). Plasmid DNA was mixed with 1.5 µL Lipofectamine^TM 2000 (cat. #11668027) in Opti-MEM^TM medium (cat. #31985062) and incubated for 20 min. Then, the mixture was added to each well of the 6-well plate following 24 h incubation at 37 °C and 5% CO2. Transfected cells were washed with DPBS, detached using EDTA (Versene, cat. #15040066), and reconstituted into fresh medium at 500,000 cells mL^−1. From this suspension, 50,000 cells were seeded into each well of a white-bottom 96-well plate (Nunc^TM MicroWell^TM 96 wells, cat. #136101) following overnight incubation at 37 °C and 5% CO2. Then, the adherent cells were washed with assay medium [Hank’s balanced salt solution (HBSS, cat. #14065056) plus 20 mM HEPES pH 7.4 (cat. #15630056)] and finally reconstituted into 50 µL of the same medium. […] Methoxy e-Coelenterazine was used as luciferase substrate (Prolume Purple, NanoLight Technology, cat. #369), reconstituted at 1 mM in methanol and diluted to 37.5 µM with assay buffer (7.5 µM final assay concentration). The assay was started by the addition of 20 µL luciferase substrate to each well of the assay plate using a Multidrop^TM Combi reagent dispenser (Thermo Fisher Scientific), followed by 5 min incubation at room temperature. Then, 30 µL of agonist dilutions or DMSO control was added (final DMSO concentration 1.5%), followed by an additional 5 min incubation at room temperature. BRET² measurements were performed with a PHERAstar® FSX microplate reader (BMG LABTECH) using a BRET² filter (donor emission 370–450 nm, acceptor emission 500–530 nm) at the maximum fluorescence gain of 3600. BRET² ratios were calculated by dividing GFP emission signals from Rluc8 emission counts. Buffer-DMSO controls were subtracted from each data point to calculate ΔBRET² ratios.

[2] = biological target: GPR55 cryo-EM construct (Gα13) (Homo sapiens, UniProt Q9Y2T6); test: BRET² G protein dissociation assay, GPR55 cryo-EM construct (GFP G67A) with Gα13; conditions: for BRET2 response, Mean (plotted, Fig. S4): Cryo-EM-G67A-G13
From the text: as §1, §2

wt GPR55 (Gα13) = wt GPR55 (Gα13) (Homo sapiens, UniProt Q9Y2T6); test: BRET² G protein dissociation assay, wt GPR55 with Gα13; conditions: for ΔBRET² ratio (Mean): GPR55-wt-G13
From the text: as §1, §2

[3] = biological target: GPR55 mutant G152F (Gα13) (Homo sapiens, UniProt Q9Y2T6, G152F); test: BRET² G protein dissociation assay, GPR55 G152F with Gα13
From the text: as §1, §2

[4] = biological target: GPR55 mutant N171Q (Gα13) (Homo sapiens, UniProt Q9Y2T6, N171Q); test: BRET² G protein dissociation assay, GPR55 N171Q with Gα13
From the text: as §1, §2

Cc1cccc(N2CCN(C(=O)c3cc(S(=O)(=O)N(C)C)ccc3N3CCCC3)CC2)c1C [ML184, 3-[[4-(2,3-dimethylphenyl)-1-piperazinyl]carbonyl]-N,N-dimethyl-4-(1-pyrrolidinyl)benzenesulfonamide]
Mean (plotted) BRET² response, GPR55-G152W-G13 ([1]; Concentration 300 pM): -0.02434
Mean (plotted) BRET² response, GPR55-G152W-G13 ([1]; Concentration 1e-9 M): -0.04124
Mean (plotted) BRET² response, GPR55-G152W-G13 ([1]; Concentration 3e-9 M): -0.05947
Mean (plotted) BRET² response, GPR55-G152W-G13 ([1]; Concentration 1e-8 M): -0.07141
Mean (plotted) BRET² response, GPR55-G152W-G13 ([1]; Concentration 3e-8 M): -0.07973
Mean (plotted) BRET² response, GPR55-G152W-G13 ([1]; Concentration 1e-7 M): -0.08343
Mean (plotted) BRET² response, GPR55-G152W-G13 ([1]; Concentration 3e-7 M): -0.08701
Mean (plotted) BRET² response, GPR55-G152W-G13 ([1]; Concentration 1e-6 M): -0.08751
Mean (plotted) BRET² response, GPR55-G152W-G13 ([1]; Concentration 3e-6 M): -0.0887
Mean (plotted) BRET² response, GPR55-G152W-G13 ([1]; Concentration 1e-5 M): -0.09176
Mean (plotted) BRET² response, GPR55-G152W-G13 ([1]; Concentration 3e-5 M): -0.09408
increase of potency compared to wt GPR55 ([1]; G152W mutant): 34 fold
Emax at 30 µM ([1]; GPR55 G152W, Gα13, 30 µM ligand, same normalization, read-out: Efficacy ± SEM (%)): 107 ± 1%
EC50 ([1]; GPR55 G152W, Gα13, calculated by extrapolating ΔBRET² ratios for concentrations <0.3 nM): 1.35 nM
EC50 ([2]; Cryo-EM construct (G67A), Gα13): 18.2 nM
Emax at 30 µM ([2]; Cryo-EM construct (G67A), Gα13, 30 µM ligand, same normalization, read-out: Efficacy ± SEM (%)): 86 ± 2%
BRET2 response, Mean (plotted, Fig. S4) ([2]; concentration 300 pM): 0.0007
BRET2 response, Mean (plotted, Fig. S4) ([2]; concentration 1e-9 M): -0.00467
BRET2 response, Mean (plotted, Fig. S4) ([2]; concentration 3e-9 M): -0.01143
BRET2 response, Mean (plotted, Fig. S4) ([2]; concentration 1e-8 M): -0.02458
BRET2 response, Mean (plotted, Fig. S4) ([2]; concentration 3e-8 M): -0.03698
BRET2 response, Mean (plotted, Fig. S4) ([2]; concentration 1e-7 M): -0.04541
BRET2 response, Mean (plotted, Fig. S4) ([2]; concentration 3e-7 M): -0.05211
BRET2 response, Mean (plotted, Fig. S4) ([2]; concentration 1e-6 M): -0.05461
BRET2 response, Mean (plotted, Fig. S4) ([2]; concentration 3e-6 M): -0.05649
BRET2 response, Mean (plotted, Fig. S4) ([2]; concentration 1e-5 M): -0.05972
BRET2 response, Mean (plotted, Fig. S4) ([2]; concentration 3e-5 M): -0.06146
ΔBRET² ratio (Mean) (wt GPR55 (Gα13); 3e-10 M): -0.004943
ΔBRET² ratio (Mean) (wt GPR55 (Gα13); 1e-9 M): -0.002883
ΔBRET² ratio (Mean) (wt GPR55 (Gα13); 3e-9 M): -0.008889
ΔBRET² ratio (Mean) (wt GPR55 (Gα13); 1e-8 M): -0.01695
ΔBRET² ratio (Mean) (wt GPR55 (Gα13); 3e-8 M): -0.02473
ΔBRET² ratio (Mean) (wt GPR55 (Gα13); 1e-7 M): -0.03149
ΔBRET² ratio (Mean) (wt GPR55 (Gα13); 3e-7 M): -0.03626
ΔBRET² ratio (Mean) (wt GPR55 (Gα13); 1e-6 M): -0.04111
ΔBRET² ratio (Mean) (wt GPR55 (Gα13); 3e-6 M): -0.04451
ΔBRET² ratio (Mean) (wt GPR55 (Gα13); 1e-5 M): -0.04913
ΔBRET² ratio (Mean) (wt GPR55 (Gα13); 3e-5 M): -0.04899
G protein activation at GPR55-transfected cells (in words) (wt GPR55 (Gα13); wt GPR55, Gα13): induced Gα13 activation in a concentration-dependent manner
Emax at 30 µM (wt GPR55 (Gα13); wt GPR55, Gα13, 30 µM ligand, 100% = wt GPR55 plus G13-biosensor at 30 µM ML184, 0% = mock plus G13-biosensor, read-out: Efficacy ± SEM (%)): 100 ± 2%
EC50 (wt GPR55 (Gα13); wt GPR55, Gα13, read-out: EC50 (Gα13 activation)): 44.7 nM
Mean (plotted) BRET² response, GPR55-G152F-G13 ([3]; Concentration 300 pM): -0.004043
Mean (plotted) BRET² response, GPR55-G152F-G13 ([3]; Concentration 1e-9 M): -0.005951
Mean (plotted) BRET² response, GPR55-G152F-G13 ([3]; Concentration 3e-9 M): -0.01719
Mean (plotted) BRET² response, GPR55-G152F-G13 ([3]; Concentration 1e-8 M): -0.03259
Mean (plotted) BRET² response, GPR55-G152F-G13 ([3]; Concentration 3e-8 M): -0.04406
Mean (plotted) BRET² response, GPR55-G152F-G13 ([3]; Concentration 1e-7 M): -0.05628
Mean (plotted) BRET² response, GPR55-G152F-G13 ([3]; Concentration 3e-7 M): -0.06251
Mean (plotted) BRET² response, GPR55-G152F-G13 ([3]; Concentration 1e-6 M): -0.06831
Mean (plotted) BRET² response, GPR55-G152F-G13 ([3]; Concentration 3e-6 M): -0.07057
Mean (plotted) BRET² response, GPR55-G152F-G13 ([3]; Concentration 1e-5 M): -0.07761
Mean (plotted) BRET² response, GPR55-G152F-G13 ([3]; Concentration 3e-5 M): -0.07919
reduction of potency compared to wt GPR55 ([3]; G152F mutant): remained unchanged
EC50 ([3]; GPR55 G152F, Gα13): 21.9 nM
Emax at 30 µM ([3]; GPR55 G152F, Gα13, 30 µM ligand, same normalization, read-out: Efficacy ± SEM (%)): 108 ± 3%
Mean (plotted) BRET² response, GPR55-N171Q-G13 ([4]; Concentration 300 pM): -0.001828
Mean (plotted) BRET² response, GPR55-N171Q-G13 ([4]; Concentration 1e-9 M): -0.002418
Mean (plotted) BRET² response, GPR55-N171Q-G13 ([4]; Concentration 3e-9 M): -0.001477
Mean (plotted) BRET² response, GPR55-N171Q-G13 ([4]; Concentration 1e-8 M): -0.0001092
Mean (plotted) BRET² response, GPR55-N171Q-G13 ([4]; Concentration 3e-8 M): -0.001125
Mean (plotted) BRET² response, GPR55-N171Q-G13 ([4]; Concentration 1e-7 M): -0.006817
Mean (plotted) BRET² response, GPR55-N171Q-G13 ([4]; Concentration 3e-7 M): -0.01585
Mean (plotted) BRET² response, GPR55-N171Q-G13 ([4]; Concentration 1e-6 M): -0.03451
Mean (plotted) BRET² response, GPR55-N171Q-G13 ([4]; Concentration 3e-6 M): -0.05647
Mean (plotted) BRET² response, GPR55-N171Q-G13 ([4]; Concentration 1e-5 M): -0.07313
Mean (plotted) BRET² response, GPR55-N171Q-G13 ([4]; Concentration 3e-5 M): -0.08032
EC50 ([4]; GPR55 N171Q, Gα13): 1410 nM
Emax at 30 µM ([4]; GPR55 N171Q, Gα13, 30 µM ligand, same normalization, read-out: Efficacy ± SEM (%)): 76 ± 2%
reduction of potency compared to wt GPR55 ([4]; N171Q mutant): 32 fold
